Test results taken from patent publication US8268292B2, “Obovatol having anti-anxiety activity” (Korea Research Institute of Bioscience and Biotechnology, priority 2005, dated 2012).

Assays:
Format in all cases: in vivo
ICR mice = assay: acute toxicity test on ICR mice; settings: oral 10, 100 and 1000 mg/kg, observed for 2 weeks
Experimental: (§1) The acute toxicity tests on ICR mice (mean body weight 25±5 g) and Sprague-Dawley rats (235±10 g, Biogenomics Co., Ltd.) were performed using the obovatol compound. Four groups consisting of 3 mice or rats was administrated orally with 10 mg/kg, 100 mg/kg and 1000 mg/kg of test sample or solvents (0.2 mL, […].) respectively and observed for 2 weeks.

ICR male mice [1] = assay: elevated plus-maze model test
Experimental: Animals and Drugs: ICR male mice weighing from 20 g to 28 g (5 or 6 weeks) were purchased from Daehan Biolink Co., Ltd. (Korea) and housed for at least 7 days prior to the experiment under 12-h light/dark cycle (lights on at 7:00 am) in a temperature-controlled (22±2° C.) animal facility. Food and water were freely accessible. All mice were maintained in accordance with the National Institute of Toxicological Research on the Korea Food and Drug Administration guideline for the care and use of laboratory animals. Diazepam (ample type) was purchased from Dea-Won Pharmaceutical Co. (South Korea) and was orally administered 30 min prior to the experiment. Obovatol was kindly gifted from Korea Research Institute of Bioscience and Biotechnology and was orally administered 60 min prior to the experiment.
Treatment of Test Sample: obovatol prepared from Example 1 was dissolved in 0.1 ml of ethanol and diluted with 0.1% Tween-80 in order to administrate with an amount of 0.1 ml/10 g per weight of test animal. Various concentrations of test sample (obovatol), i.e., 0.2, 0.5 and 1 mg/kg were orally administrated at 1 hour prior to the experiment and […] of diazepam was peritoneally administrated into animal at 30 mins prior to the experiment.
To determine the anti-anxiety activity after administration of obovatol, elevated plus-maze model test was performed as follow in accordance with procedure cited in the literature (Dawson, G. R. et al., Trends in Pharmacological Sciences, 16, pp. 33-36, 1995).
Elevated plus-maze apparatus consists of two perpendicular open (30×5 cm) and two closed arms (30×5 cm) with 15 cm high walls, extending from the central platform (5×5 cm). […] All experimental sessions were recorded with a video camera mounted vertically above the maze. The activity on the open arm was evaluated as: 1) time spent on the open arms relative to the total time spent in the plus-maze, expressed as a percentage (100× time spent on open arm/total time in the plus-maze); 2) the number of entries into both open and closed arms, expressed as a percentage (100× open/total entries). […]

Sprague-Dawley rats = assay: acute toxicity test on Sprague-Dawley rats; settings: oral 10, 100 and 1000 mg/kg, observed for 2 weeks
Experimental: as §1

ICR male mice [2] = assay: locomoter activity test; settings: oral 0.2, 0.5 and 1.0 mg/kg; dose dependent
Experimental: All the animals used in the test are prepared in the similar method according to Experimental Example 1.
To determine and re-confirm the anti-anxiety activity of obovatol, following locomoter activity test was performed as follow in accordance with the procedure cited in the literature (Kulkarni S. K. et al., Methods and Findings in Experimental and Clinical Pharmacology, 18, pp. 219-230, 1996).
All the animals were transferred to test cage (diameter: 20 cm, height: 18 cm) one hour prior to the administration of test samples, acclimated the environment for 10 mins and the locomoter activity was determined automatically at every 1 hour.

obovatol
treatment-related effects on mortality, clinical signs, body weight changes and gross findings (ICR mice): no treatment-related effects
anti-anxiety activity relative to diazepam (ICR male mice [1]; at the same doses of the drugs, elevated plus-maze, FIG. 3 and FIG. 4): more potent anti-anxiety activity than diazepam
percentage of time spent in the open arms (ICR male mice [1]; oral 0.2, 0.5 and 1.0 mg/kg, 60 min prior (P<0.05, P<0.05 and P<0.005)): significant increases
percentage of entries into open arms (ICR male mice [1]; oral 0.2, 0.5 and 1.0 mg/kg, 60 min prior, dose dependent, compared with diazepam treated group (P<0.05, P<0.05 and P<0.005)): significantly increased
treatment-related effects on mortality, clinical signs, body weight changes and gross findings (Sprague-Dawley rats): no treatment-related effects
locomoter activity (ICR male mice [2]): significantly decreased
